Results reported in US20210284621A1 (priority 2018, published 2021).
Read-outs that look alike come from different tables or passages of the source.

Experiments:
[1] = Pharmacokinetics after IV dose in mice; details: in vivo, 1 mg/kg IV, male C57BL/6 mice; for AUC(0-t): male, C57BL/6, mouse, iv, 1 mg/kg; for AUC(0-inf) / C0 / MRT inf / clearance / half-life / Vd: mouse; for Vd: read-out: Vss
Protocol: Male C57BL/6 mice were administered an intravenous (IV) dose of 1 mg/kg of the indicated compound.

[2] = target: T1, CB2 receptor (Homo sapiens, UniProt P34972); assay: cell-based; design: host or cells: cAMP Hunter cell lines
Procedure, shortened: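 PathHunter β-Arrestin enzyme fragment complementation cells, EA-tagged β-Arrestin and PK-tagged receptor, exposed to compound for 90 to 180 minutes at 37° C. or room temperature, 1% vehicle. Chemiluminescence read 1 h after detection reagent; agonist % activity relative to vehicle and MAX control ligand.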

[3] = target: T1, CB2 receptor; assay: cAMP Assay #2: Hit Hunter cAMP assay, Gi-coupled agonist activity, CB2; assay type: cell-based; design: host or cells: cAMP Hunter cell lines; details: for CB2 fold selectivity: CB1 EC50 / CB2 EC50
[4] = target: T2, CB1 receptor (Homo sapiens, UniProt P21554); assay: cAMP Assay #1: CB1 adenylylcyclase assay in CHO cells; assay type: cell-based; design: expressed in transfected cells; host or cells: CHO cells
Protocol: Compounds of the invention were assayed in an adenylylcyclase assay to determine agonist activity on the CB1 and CB2 receptors, the results of which are provided in Table 4. Exemplary methods for the adenylylcyclase assay can be found in the literature, for example, in Rhee, M-H., et al. Cannabinol Derivatives: Binding to Cannabinoid Receptors and Inhibition of Adenylylcyclase. J Med Chem. 40: 3228-3233 (1997).
CB1 Activity as determined by Adenylylcyclase Assay: CB1 receptor agonist activity was measured by measuring cAMP production. A compound of the invention was incubated with CHO cells expressing human recombinant CB1 for 20 minutes at 37° C.
Determination of EC50 values: The EC50 values (concentration producing a half-maximal response) were determined by non-linear regression analysis of the concentration-response curves generated with mean replicate values using Hill equation curve fitting: Y=D+[(A−D)/(1+(C/C50)^nH)], where Y=response, A=left asymptote of the curve, D=right asymptote of the curve, C=compound concentration, and C50=EC50, and nH=slope factor. This analysis was performed using software developed at Cerep (Hill software) and validated by comparison with data generated by the commercial software SigmaPlot® 4.0 for Windows® (© 1997 by SPSS Inc.).

[5] = target: T2, CB1 receptor; assay: cell-based; design: host or cells: PathHunter cell lines
[6] = PathHunter agonist mode, read-out: CB2 Activity (β-Arrestin)
[7] = Hit Hunter cAMP, 25 μM forskolin, control ligand CP55,940, read-out: CB2, EC50
[8] = CHO cells, 20 min 37° C., relative to 10 nM CP 55940, read-out: CB1 Activity EC50 (cAMP)
[9] = PathHunter agonist mode, read-out: CB1 Activity (β-Arrestin)

T1 sequence (P34972 whole entry, the tested form may be a part): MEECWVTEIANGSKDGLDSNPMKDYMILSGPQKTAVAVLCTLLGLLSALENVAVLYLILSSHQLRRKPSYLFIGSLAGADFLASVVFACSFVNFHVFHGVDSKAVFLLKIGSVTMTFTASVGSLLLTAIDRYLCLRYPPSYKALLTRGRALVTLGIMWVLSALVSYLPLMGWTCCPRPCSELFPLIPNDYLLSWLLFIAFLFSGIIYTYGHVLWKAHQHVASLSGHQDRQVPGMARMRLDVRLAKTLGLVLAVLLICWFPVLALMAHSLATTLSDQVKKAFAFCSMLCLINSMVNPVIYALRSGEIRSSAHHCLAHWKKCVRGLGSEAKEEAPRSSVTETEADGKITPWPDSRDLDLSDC
T2 sequence (P21554 whole entry): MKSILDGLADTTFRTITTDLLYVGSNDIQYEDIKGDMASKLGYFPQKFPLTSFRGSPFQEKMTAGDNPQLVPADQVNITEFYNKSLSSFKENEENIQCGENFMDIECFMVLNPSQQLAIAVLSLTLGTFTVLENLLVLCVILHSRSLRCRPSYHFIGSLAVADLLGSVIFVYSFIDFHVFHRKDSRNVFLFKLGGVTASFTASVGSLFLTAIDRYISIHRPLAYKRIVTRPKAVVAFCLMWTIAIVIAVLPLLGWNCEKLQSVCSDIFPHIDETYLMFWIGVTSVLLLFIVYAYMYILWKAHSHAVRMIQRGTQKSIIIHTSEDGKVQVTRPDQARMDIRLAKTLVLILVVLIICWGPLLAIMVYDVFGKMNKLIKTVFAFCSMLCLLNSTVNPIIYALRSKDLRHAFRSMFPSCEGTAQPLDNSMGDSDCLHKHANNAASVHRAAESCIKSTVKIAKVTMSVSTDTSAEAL

SMILES | AUC(0-t) ([1]; read-out: AUC0-24 hr) | AUC(0-t) ([1]; read-out: AUClast) | AUC(0-inf) [1] | C0 [1] | MRT inf [1] | clearance [1] | half-life [1] | Vd [1] | EC50 [2] | EC50 [3] | CB2 fold selectivity ([3]; Hit Hunter cAMP) | EC50 [4] | EC50 [5] | EC50 [2, 6] | EC50 [3, 7] | EC50 [4, 8] | EC50 [5, 9]
CCCCCCC(C)(C)c1cc(O)c2c(c1)OC(C)(C)[C@@H]1CC=C(C(=O)O)C[C@@H]21 [AJA, (6aR,10aR)-1-hydroxy-6,6-dimethyl-3-(2-methyl-2-octanyl)-6a,7,10,10a-tetrahydro-6H-benzo[c]chromene-9-carboxylic acid, reference compound] | 2770 ng·h/mL | 2420 ng·h/mL | 2510 ng·h/mL | 1750 ng/mL | 1.89 h | 6.67 mL/min/kg | 1.41 h | 0.75 L/kg | 11 nM | 7 nM | 11.0 | 4.6 nM | 1240 nM | – | – | – | –
CCCCCCC(C)(C)c1cc(O)c2c(c1)OC(C)(C)[C@@H]1CC=C(C(=O)NC(C)(C)CCO)C[C@@H]21 [Compound 15, (6aR,10aR)-1-Hydroxy-N-(4-hydroxy-2-methylbutan-2-yl)-6,6-dimethyl-3-(2-methyloctan-2-yl)-6a,7,10,10a-tetrahydro-6H-benzo[c]chromene-9-carboxamide] | 1720 ng·h/mL | 1510 ng·h/mL | 1570 ng·h/mL | 1840 ng/mL | 2.16 h | 10.6 mL/min/kg | 1.74 h | 1.37 L/kg | – | – | 164.1 | – | – | > 3000 nM | 2.7 nM | 68 nM | > 3000 nM
CCCCCCC(C)(C)c1cc(O)c2c(c1)OC(C)(C)[C@@H]1CC=C(C(=O)NC(CO)CO)C[C@@H]21 [Compound 25, (6aR,10aR)-N-(1,3-Dihydroxypropan-2-yl)-1-hydroxy-6,6-dimethyl-3-(2-methyloctan-2-yl)-6a,7,10,10a-tetrahydro-6H-benzo[c]chromene-9-carboxamide] | – | – | – | – | – | – | – | – | – | – | 40.0 | – | – | 10 nM | 9 nM | 16 nM | > 3000 nM
CCCCCCC(C)(C)c1cc(O)c2c(c1)OC(C)(C)[C@@H]1CC=C(C(=O)OC(C)C)C[C@@H]21 [Compound 29, Isopropyl (6aR,10aR)-1-hydroxy-6,6-dimethyl-3-(2-methyloctan-2-yl)-6a,7,10,10a-tetrahydro-6H-benzo[c]chromene-9-carboxylate] | 3550 ng·h/mL | 3550 ng·h/mL | 3570 ng·h/mL | 17500 ng/mL | 1.53 h | 4.67 mL/min/kg | 4.89 h | 0.43 L/kg | – | 1 nM | 9.6 | 6.8 nM | – | 3 nM | – | – | 47 nM
CCCCCCC(C)(C)c1cc(O)c2c(c1)OC(C)(C)[C@@H]1CC=C(C(=O)NC[C@@H](O)CO)C[C@@H]21 [Compound 55, (6aR,10aR)-N—((R)-2,3-Dihydroxypropyl)-1-hydroxy-6,6-dimethyl-3-(2-methyloctan-2-yl)-6a,7,10,10a-tetrahydro-6H-benzo[c]chromene-9-carboxamide] | 2360 ng·h/mL | 2360 ng·h/mL | 2380 ng·h/mL | 3060 ng/mL | 3.38 h | 7.02 mL/min/kg | 3.99 h | 1.42 L/kg | – | – | 30.5 | – | – | 6.9 nM | 5.7 nM | 45 nM | > 3000 nM
CCCCCCC(C)(C)c1cc(O)c2c(c1)OC(C)(C)[C@@H]1CC=C(C(=O)NC[C@H](O)CO)C[C@@H]21 [Compound 56, (6aR,10aR)-N—((S)-2,3-Dihydroxypropyl)-1-hydroxy-6,6-dimethyl-3-(2-methyloctan-2-yl)-6a,7,10,10a-tetrahydro-6H-benzo[c]chromene-9-carboxamide] | 2080 ng·h/mL | 1790 ng·h/mL | 1920 ng·h/mL | 2790 ng/mL | 2.3 h | 8.7 mL/min/kg | 2.39 h | 1.2 L/kg | – | – | 30.0 | – | – | 6.9 nM | 8.4 nM | 3.6 nM | > 3000 nM
